Results from ChEMBL document CHEMBL2331416, “Investigation of antibacterial mode of action for traditional and amphiphilic aminoglycosides” (Bioorg Med Chem Lett, 2013).
≈ marks a conversion by molar mass, not a printed value. Calls of active or inactive are those of the source. The rule behind the calls is not given here.

Legend:
[1] = Binding affinity to 2-AP labeled 16s rRNA (unknown origin) having pairing of C1405-G1496 by fluorescence assay
[2] = Binding affinity to 2-AP labeled 16s rRNA (unknown origin) having pairing of G1405-C1496 by fluorescence assay
[3] = tested on: Staphylococcus aureus; experiment: Antibacterial activity against Staphylococcus aureus ATCC 25923 assessed as growth inhibition; assay type: functional
[4] = tested on: Escherichia coli; experiment: Antibacterial activity against Escherichia coli ATCC 25922 assessed as growth inhibition; assay type: functional
[5] = tested on: Staphylococcus aureus; experiment: Antibacterial activity against Staphylococcus aureus ATCC 25923 assessed as membrane disruption at 4 X MIC after 2 hrs by SYTOX staining-based fluorescence microscopic analysis; assay type: functional, organism-based
[6] = tested on: Escherichia coli; experiment: Antibacterial activity against Escherichia coli ATCC 25922 assessed as membrane disruption at 4 X MIC after 2 hrs by SYTOX staining-based fluorescence microscopic analysis; assay type: functional, organism-based

SMILES | Kd [1] [µM] | Kd ([2]; read-out: Kd) [µM] | MIC [3] [µM] | MIC [4] [µM] | Kd [2] | Activity [5] | Activity [6]
NC[C@H]1O[C@@H](O[C@@H]2[C@@H](O)[C@H](N)C[C@H](N)[C@H]2O[C@H]2O[C@H](CN)[C@@H](O)[C@H](O)[C@H]2N)[C@H](O)[C@@H](O)[C@@H]1O | 0.845 | 26.1 | 14.8 (≈ 7.16 µg/mL) | 35.1 (≈ 17 µg/mL) | – | – | –
NC[C@H]1O[C@H](O[C@H]2[C@H](O[C@@H]3O[C@H](CO)[C@@H](O)[C@H](N)[C@H]3O)[C@@H](O)[C@H](N)C[C@@H]2N)[C@H](N)[C@@H](O)[C@@H]1O | 1.15 | – | 59.2 (≈ 28.6 µg/mL) | 57.2 (≈ 27.7 µg/mL) | Not Active | – | –
NC[C@@H]1O[C@H](O[C@H]2[C@@H](O)[C@H](O[C@@H]3[C@@H](O)[C@H](N)C[C@H](N)[C@H]3O[C@H]3O[C@H](CN)[C@@H](O)[C@H](O)[C@H]3N)O[C@@H]2CO)[C@H](N)[C@@H](O)[C@@H]1O [FRAMYCETIN] | 1.27 | 1.15 | 1.1 (≈ 0.676 µg/mL) | 4.4 (≈ 2.7 µg/mL) | – | inactive | –
NC[C@H]1O[C@H](O[C@H]2[C@H](O[C@@H]3O[C@H](CO)[C@@H](N)[C@H](O)[C@H]3O)[C@@H](O)[C@H](N)C[C@@H]2N)[C@H](N)[C@@H](O)[C@@H]1O | 2.83 | 5.67 | 29.6 (≈ 14.3 µg/mL) | 44 (≈ 21.3 µg/mL) | – | – | –
NC[C@H]1O[C@@H](O[C@@H]2[C@@H](O)[C@H](N)C[C@H](N)[C@H]2O[C@H]2O[C@H](CN)[C@@H](O)[C@H](O)[C@H]2N)[C@H](O)[C@@H](O)[C@@H]1N | 0.261 | 3.72 | 29.6 (≈ 14.3 µg/mL) | 41.8 (≈ 20.2 µg/mL) | – | – | –
CCCCCCCCCCCCCCCC(=O)NC[C@H]1O[C@@H](O[C@@H]2[C@@H](O)[C@H](N)C[C@H](N)[C@H]2O[C@H]2O[C@H](CN)[C@@H](O)[C@H](O)[C@H]2N)[C@H](O)[C@@H]1O[C@@H]1O[C@H](CN)[C@H](O)[C@@H](O)[C@@H]1N | 0.737 | 1.27 | 2.35 (≈ 2 µg/mL) | 4.69 (≈ 4 µg/mL) | – | Active | Active
NCC[C@H](O)C(=O)N[C@@H]1C[C@H](N)[C@@H](O[C@H]2O[C@H](CN)[C@@H](O)[C@H](O)[C@H]2N)[C@H](O[C@@H]2O[C@H](CO)[C@@H](O[C@@H]3O[C@H](CN)[C@H](O)[C@@H](O)[C@@H]3N)[C@H]2O)[C@H]1O [NEOKACIN] | 1.64 | – | 2.15 (≈ 1.54 µg/mL) | 8.59 (≈ 6.15 µg/mL) | Not Active | – | –

Now from value to molecule, other results behind:

Kd [1] [µM] | Kd ([2]; read-out: Kd) [µM] | MIC [3] [µM] | MIC [4] [µM] | Kd [2] | SMILES | Activity [5] | Activity [6]
0.608 | 9.67 | 44.4 (≈ 21.5 µg/mL) | 92.4 (≈ 44.8 µg/mL) | – | NC[C@H]1O[C@H](O[C@H]2[C@H](O[C@@H]3O[C@H](CO)[C@@H](O)[C@H](O)[C@H]3O)[C@@H](O)[C@H](N)C[C@@H]2N)[C@H](N)[C@@H](O)[C@@H]1O | – | –
0.556 | – | 11 (≈ 5.14 µg/mL) | 19.8 (≈ 9.26 µg/mL) | Not Active | C[C@H]1O[C@@H](O[C@@H]2[C@@H](O)[C@H](N)C[C@H](N)[C@H]2O[C@H]2O[C@H](CN)[C@@H](O)[C@H](O)[C@H]2N)[C@H](O)[C@@H](O)[C@@H]1N | – | –
1.2 | 1.33 | 6.5 (≈ 2.84 µg/mL) | 26 (≈ 11.3 µg/mL) | – | C[C@H]1O[C@@H](O[C@@H]2[C@@H](O)[C@H](N)C[C@H](N)[C@H]2O[C@H]2O[C@H](CN)CC[C@H]2N)[C@H](O)[C@@H](O)[C@@H]1O | – | –
1.36 | 0.65 | 2.8 (≈ 1.5 µg/mL) | 5.59 (≈ 3 µg/mL) | – | C[C@H]1O[C@@H](O[C@@H]2[C@@H](O)[C@H](NC(=O)[C@@H](O)CCN)C[C@H](N)[C@H]2O[C@H]2O[C@H](CN)CC[C@H]2N)[C@H](O)[C@@H](O)[C@@H]1N [PYRANKACIN] | – | –
